Laboratory results from paper PMC3202585, “Venom of Parasitoid, Pteromalus puparum, Suppresses Host, Pieris rapae, Immune Promotion by Decreasing Host C-Type Lectin Gene Expression” (PLoS ONE, 2011).

Target: T1, Pr-CTL (Pieris rapae, UniProt G5CJE6)
T1 construct: two tandem CRDs (residues 41-151 and 184-302)
T1 sequence (G5CJE6 20-313): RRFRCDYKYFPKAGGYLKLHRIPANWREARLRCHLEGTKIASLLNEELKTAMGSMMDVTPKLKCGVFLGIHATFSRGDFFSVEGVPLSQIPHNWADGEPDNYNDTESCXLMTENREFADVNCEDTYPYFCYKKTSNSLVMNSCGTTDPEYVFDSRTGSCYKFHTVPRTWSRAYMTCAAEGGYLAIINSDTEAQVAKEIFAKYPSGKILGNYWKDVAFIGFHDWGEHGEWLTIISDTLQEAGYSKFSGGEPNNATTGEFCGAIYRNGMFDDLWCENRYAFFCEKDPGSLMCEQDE
Test: carbohydrate binding assay (data not shown)
Details: calcium-dependent, described as agglutination of carbohydrates

| Compound | carbohydrate binding assay (data not shown) |
| --- | --- |
| OC[C@H]1OC(O)[C@@H](O)[C@@H](O)[C@@H]1O (some centres unmarked) [mannose] | recombinant Pr-CTL possesses the calcium-dependent agglutination of different kind of carbohydrates, such as mannose |
| OC[C@H]1OC(O)[C@H](O)[C@@H](O)[C@H]1O (some centres unmarked) [galactose] | agglutination of different kind of carbohydrates, such as mannose, galactose and peptidoglycan (data not shown) |
